Test system: lipoxin A4 production by mononuclear blood cells
Experiment: Synthesis/release of lipoxin A4 by stimulated (PMA/A23187 + DHA/EPA) mononuclear blood cells, LC-MS quantification
Format: cell-based
Conditions: 30 min pre-incubation, 2 hours of stimulation
Procedure: Mononuclear blood cells are cultured under 5% CO2 and at 37° C. in a serum-free medium for macrophages (SFM Macrophage; Invitrogen 12065074) for 24 hours.
After this step, the medium is replaced with the same fresh test medium also containing the active agents at the various doses for 30 minutes in the presence of the various products to be evaluated, as indicated in the table of results below. The inflammatory response was then triggered in the presence of phorbol myristate (0.05 μM) and calcium ionophore (1 μM) and of a lipid substrate mixture composed of docosahexaenoic acid (DHA—1 μg/mL) and eicosapentaenoic acid (EPA—1 μg/mL).
The supernatants were then collected after 2 hours of stimulation and frozen at −80° C. before preparation for analysis by mass spectrometry.
Experimental triplicates (three wells) were prepared per experimental condition. Into each culture plate was placed a control corresponding to cells stimulated with the PMA/A23187 mixture and/or with addition of the equimolar mixture of fatty acids.
The thawed supernatants were concentrated by solid-phase extraction (SPE) and taken up in methanol before spectrometric analysis. The analytical method used consists in separating the various analytes by high-pressure liquid chromatography as a function of their retention time and in quantifying them by mass spectrometry. […]

Row | Compound | Level of lipoxin A4 production (% modulation relative to the control) (taurine 3.1 mg/ml) | Level of lipoxin A4 production (% modulation relative to the control) (zinc gluconate 0.005 mg/ml) [%]
1 | NCCS(=O)(=O)O [Taurine] | +38% | –
2 | Zinc gluconate | – | −5

Source: patent US20160106695A1, “PETROSELINIC ACID OR A COMBINATION OF ACTIVE INGREDIENTS COMPRISING AT LEAST PETROSELINIC ACID FOR PROMOTING WEIGHT LOSS AND/OR WEIGHT MAINTENANCE” (NESTEC SA, priority 2013, published 2016)
